Like-named read-outs stand apart in the source and are kept apart here.

Data set [1] relates to Ctenocephalides felis. The experiment in a line: Ctenocephalides felis oral (CTECFE). It is filed as in vivo. The settings on record: application rate 100 ppm in citrated cattle blood; after 2 days. The gist of the method: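 About 20 unfed adult fleas fed through a Parafilm membrane on citrated cattle blood containing the compound at the desired concentration, diluted from a DMSO concentrate. Kill in % was scored after 2 days, where 100% means all fleas dead and 0% none.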

The subject of data set [2] is adult Musca domestica. As to the kind of experiment: Musca domestica test (MUSCDO). The class given is in vivo. The settings on record: application rate 100 ppm; treated sponge; after 2 days. As to the method: Musca domestica Test (MUSCDO) Solvent: dimethyl sulphoxide To prepare an appropriate active ingredient formulation, 10 mg of active ingredient are mixed with 0.5 ml of dimethyl sulphoxide and the concentrate is diluted with water to the desired concentration. Vessels containing a sponge treated with the active ingredient formulation of the desired concentration are populated with adult Musca domestica. After 2 days, the kill in % is determined 100% means that all of the flies have been killed; 0% means that none of the flies have been killed.

Data set [3] has as its system Lucilia cuprina larvae. The experiment in a line: Lucilia cuprina test (LUCICU). The settings on record: application rate 100 ppm; treated horse meat; after 2 days. It is filed as in vivo. The gist of the method: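 About 20 Lucilia cuprina larvae placed on horse meat treated with compound formulation (DMSO concentrate diluted in water). Kill (%) scored after 2 days, 100% meaning all larvae dead.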

For data set [4], the system named is Phaedon cochleariae. The experiment in a line: Phaedon test (PHAECO spray treatment). It is filed as in vivo. The settings on record: Chinese cabbage leaf discs, after 7 days. The gist of the method: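 Chinese cabbage leaf discs were sprayed with compound in acetone/DMF with emulsifier, diluted in water to the test concentration. After drying, discs were infested with mustard beetle larvae. Efficacy in % was scored after 7 days, where 100% means all larvae were killed and 0% means none.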

In data set [5] the test system is Tetranychus urticae. As to the kind of experiment: Tetranychus test, OP-resistant (TETRUR spray treatment). It is filed as in vivo. The settings on record: bean leaf discs, after 6 days. In a few lines:
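Bean leaf discs infested with all stages of OP-resistant T. urticae sprayed with compound formulated in acetone/DMF plus alkylaryl polyglycol ether emulsifier, diluted in water. Efficacy (% mites killed) scored after 6 days.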

A short description of data set [6]: logP (HPLC-MS). It is filed as physicochemical.
The test system of data set [7] is Boophilus microplus. The experiment in a line: Boophilus microplus test (BOOPMI injection). It is filed as in vivo. The settings on record: application rate 20 μg/animal; injected into the abdomen; after 7 days. The gist of the method:
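Active ingredient dissolved in DMSO (10 mg in 0.5 ml, then diluted to the test concentration) and injected into the abdomen of Boophilus microplus ticks. Ticks kept in dishes in a climate-controlled room for 7 days. Efficacy (%) is based on laying of fertile eggs; 100% means no tick laid fertile eggs.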

The subject of data set [8] is Spodoptera frugiperda. As to the kind of experiment: Spodoptera frugiperda test (SPODFR spray treatment). The class given is in vivo. The settings on record: maize leaf discs, after 7 days. In a few lines:
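Maize leaf discs sprayed with active ingredient formulated in acetone/dimethylformamide with emulsifier, diluted in emulsifier-containing water to the desired concentration. After drying, discs were populated with armyworm caterpillars. Efficacy (%) scored after 7 days: 100% all caterpillars killed, 0% none killed.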

Where [9] appears, read: HPLC, reversed-phase column (C18), acidic range pH 2.7, acetonitrile (0.1% formic acid)/water gradient, 43° C., calibration with unbranched alkan-2-ones.
[10] abbreviates: HPLC, reversed-phase column (C18), 43° C., acidic range pH 2.7, EEC directive 79/831 Annex V.A8, two values = both regioisomers (G = N).

Consider `C#CCn1c(C(=O)NC(c2ccc(F)c(Br)c2)C(F)(F)F)cc2cc(C(=O)NC3(C#N)CC3)c(Cl)cc21` (stereo not shown) [Compound 62], for which the “efficacy (kill in %)” value in data set [1] was 100%; in data set [2] it was 80%; in data set [3], 100%. The figures for the efficacy in % in data set [4] (application rate 100 g/ha), in data set [5] (application rate 100 g/ha) and in data set [8] (application rate 100 g/ha) were 100%, 90% and 100%, respectively. The molecule also yielded a log p in data set [6] (setting [9]) of 3.57. Also, the “efficacy (laying of fertile eggs)” value in data set [7] is 100%.
On to `CCn1c(C(=O)NC(c2ccc(F)c(Br)c2)C(F)(F)F)cc2cc(C(=O)NC3(C#N)CC3)c(Cl)cc21` (stereo not shown) [Compound 42], for which the “efficacy (kill in %)” value in data set [1], in data set [2] and in data set [3] was 100% each time. Moreover, the efficacy in % in data set [4] (application rate 100 g/ha), in data set [5] (application rate 100 g/ha) and in data set [8] (application rate 100 g/ha) was 100% throughout. Also, the log p in data set [6] (setting [9]) amounted to 3.76. Besides, in data set [7], the “efficacy (laying of fertile eggs)” value is on record as 100%.
Take `C#CCn1c(C(=O)NC(c2cccc(C(F)(F)F)c2)C(F)(F)F)cc2cc(C(=O)NC3(C#N)CC3)c(Cl)cc21` (stereo not shown) [Compound 57, 6-chloro-N^5-(1-cyanocyclopropyl)-1-(prop-2-yn-1-yl)-N^2-{2,2,2-trifluoro-1-[3-(trifluoromethyl)phenyl]ethyl}-1H-indole-2,5-dicarboxamide]: the “efficacy (kill in %)” value in data set [1], in data set [2] and in data set [3] was 100% in each case. In addition, in data set [4] (Phaedon cochleariae, foliar, 168 h, application rate 100 g/ha, read-out: efficacy in %), the pest or weed control at 100 g/ha was determined as 100%. Moreover, the efficacy in % in data set [5] (application rate 100 g/ha) and in data set [8] (application rate 100 g/ha) was 100% each time. In addition, the chromatographic logP in data set [6] (HPLC, reversed-phase column (C18), acidic range pH 2.7, acetonitrile (0.1% formic acid)/water gradient, 43° C., calibration with unbranched alkan-2-ones, read-out: log p) came out at 3.49; in data set [6] (HPLC-MS) it was 3.49. In addition, in data set [7], the “efficacy (laying of fertile eggs)” value is on record as 100%.
Turning to `CC#CCn1c(C(=O)NC(c2cccc(C(F)(F)F)c2)C(F)(F)F)cc2cc(C(=O)NC3(C#N)CC3)c(Cl)cc21` (stereo not shown) [Compound 285], the “efficacy (kill in %)” value is on record as 100% in data set [1], 90% in data set [2] and 100% in data set [3]. Besides, the efficacy in % in data set [4] (application rate 100 g/ha), in data set [5] (application rate 100 g/ha) and in data set [8] (application rate 100 g/ha) was 100% each time. Moreover, the log p in data set [6] (setting [10]) was 3.87. In data set [7], the “efficacy (laying of fertile eggs)” value is recorded as 100%.
For `CCn1c(C(=O)NC(c2ccc(F)c(Cl)c2)C(F)(F)F)cc2cc(C(=O)NC3(C#N)CC3)c(Cl)cc21` (stereo not shown) [Compound 20], the “efficacy (kill in %)” value in data set [1], in data set [2] and in data set [3] was 100% in each case. Further, the efficacy in % in data set [4] (application rate 100 g/ha) was determined as 100%; in data set [5] (application rate 100 g/ha), 80%; in data set [8] (application rate 100 g/ha), 100%. In data set [6] (setting [9]), this molecule displayed a log p of 3.79. Further, the “efficacy (laying of fertile eggs)” value in data set [7] is listed as 100%.
As for `Cn1c(C(=O)NC(c2ccc(F)c(C(F)(F)F)c2)C(F)(F)F)cc2cc(C(=O)NC3(C#N)CC3)c(Cl)cc21` (stereo not shown) [Compound 50], the “efficacy (kill in %)” value in data set [1], in data set [2] and in data set [3] was 100% each time. In addition, the efficacy in % in data set [4] (application rate 100 g/ha), in data set [5] (application rate 100 g/ha) and in data set [8] (application rate 100 g/ha) was 100% each time. The log p in data set [6] (setting [9]) came to 3.52. Also, the “efficacy (laying of fertile eggs)” value in data set [7] came out at 100%.
For `C#CCn1c(C(=O)NC(c2ccc(F)c(C(F)(F)F)c2)C(F)(F)F)cc2cc(C(=O)NC3(C#N)CC3)c(Cl)cc21` (stereo not shown) [Compound 61], the “efficacy (kill in %)” value in data set [1], in data set [2] and in data set [3] was 100% throughout. For the same molecule, the efficacy in % in data set [4] (application rate 100 g/ha), in data set [5] (application rate 100 g/ha) and in data set [8] (application rate 100 g/ha) was 100% throughout. The log p in data set [6] (setting [9]) was determined as 3.65. Further, the “efficacy (laying of fertile eggs)” value in data set [7] was 100%.
For `CCn1c(C(=O)NC(c2cc(Cl)cc(Cl)c2)C(F)(F)F)cc2cc(C(=O)NC3CC3)c(Cl)cc21` (stereo not shown) [Compound 13], the “efficacy (kill in %)” value in data set [1], in data set [2] and in data set [3] was 100% in each case. Moreover, the efficacy in % in data set [4] (application rate 500 g/ha) was determined as 100%; in data set [5] (application rate 500 g/ha), 80%; in data set [8] (application rate 500 g/ha), 100%. Besides, the log p in data set [6] (setting [9]) is on record as 4.27. Besides, the “efficacy (laying of fertile eggs)” value in data set [7] was determined as 100%.
Consider `CCCn1c(C(=O)NC(c2cccc(C(F)(F)F)c2)C(F)(F)F)cc2cc(C(=O)NC3(C#N)CC3)c(Cl)cc21` (stereo not shown) [Compound 288], for which the “efficacy (kill in %)” value in data set [1], in data set [2] and in data set [3] was 100% each time. Besides, the efficacy in % in data set [4] (application rate 100 g/ha), in data set [5] (application rate 100 g/ha) and in data set [8] (application rate 100 g/ha) was 100% in each case. In data set [6] (setting [10]), the log p is 4.03. For the same molecule, the “efficacy (laying of fertile eggs)” value in data set [7] is reported as 100%.
As to `C=CCn1c(C(=O)NC(c2cccc(C(F)(F)F)c2)C(F)(F)F)cc2cc(C(=O)NC3(C#N)CC3)c(Cl)cc21` (stereo not shown) [Compound 283], the entries for the “efficacy (kill in %)” value in data set [1], in data set [2] and in data set [3] were 100%, 90% and 100%, respectively. Moreover, the efficacy in % in data set [4] (application rate 100 g/ha), in data set [5] (application rate 100 g/ha) and in data set [8] (application rate 100 g/ha) was 100% each time. This molecule displayed a log p in data set [6] (setting [10]) of 3.74. In data set [7], the “efficacy (laying of fertile eggs)” value worked out at 100%.
Consider `C#CCn1c(C(=O)NC(c2ccc(F)c(Cl)c2)C(F)(F)F)cc2cc(C(=O)NC3CC3)c(Cl)cc21` (stereo not shown) [Compound 63], for which the “efficacy (kill in %)” value in data set [1], in data set [2] and in data set [3] was 100% in each case. The efficacy in % in data set [4] (application rate 100 g/ha), in data set [5] (application rate 100 g/ha) and in data set [8] (application rate 100 g/ha) was 100% each time. Besides, the log p in data set [6] (setting [9]) was found to be 3.57. Moreover, in data set [7], the “efficacy (laying of fertile eggs)” value is on record as 100%.
With `CCn1c(C(=O)NC(c2cccc(C(F)(F)F)c2)C(F)(F)F)cc2cc(C(=O)NC3(C)CC3)c(Cl)cc21` (stereo not shown) [Compound 22], the “efficacy (kill in %)” value in data set [1], in data set [2] and in data set [3] was 100% in each case. The efficacy in % amounted to 100% in data set [4] (application rate 100 g/ha), 80% in data set [5] (application rate 100 g/ha) and 83% in data set [8] (application rate 100 g/ha). Moreover, in data set [6] (setting [9]), the log p turned out to be 4.16. Besides, in data set [7], the “efficacy (laying of fertile eggs)” value is 100%.
Turning to `CCn1c(C(=O)NC(c2ccc(F)c(Br)c2)C(F)(F)F)cc2cc(C(=O)NC3CC3)c(C)cc21` (stereo not shown) [Compound 190], the “efficacy (kill in %)” value in data set [1], in data set [2] and in data set [3] was 100% in each case. In addition, the efficacy in % in data set [4] (application rate 100 g/ha), in data set [5] (application rate 100 g/ha) and in data set [8] (application rate 100 g/ha) was 100% in each case. In data set [6] (setting [9]), this molecule came in with a log p of 3.70. In data set [7], the “efficacy (laying of fertile eggs)” value turned out to be 100%.
Regarding `CCn1c(C(=O)NC(c2cc(Cl)c(Cl)c(Cl)c2)C(F)(F)F)cc2cc(C(=O)NC3(C#N)CC3)c(Cl)cc21` (stereo not shown) [Compound 275], the “efficacy (kill in %)” value in data set [1], in data set [2] and in data set [3] was 100% each time. Further, the efficacy in % in data set [4] (application rate 100 g/ha), in data set [5] (application rate 100 g/ha) and in data set [8] (application rate 100 g/ha) was 100% in each case. The log p in data set [6] (setting [9]) is given as 4.43. The “efficacy (laying of fertile eggs)” value in data set [7] came to 100%.
As to `Cn1c(C(=O)NC(c2ccc(F)c(Br)c2)C(F)(F)F)cc2cc(C(=O)NC3(C#N)CC3)c(Cl)cc21` (stereo not shown) [Compound 52], the “efficacy (kill in %)” value in data set [1], in data set [2] and in data set [3] was 100% throughout. The efficacy in % in data set [4] (application rate 100 g/ha), in data set [5] (application rate 100 g/ha) and in data set [8] (application rate 100 g/ha) was 100% in each case. In data set [6] (setting [9]), this molecule returned a log p of 3.44. Moreover, the “efficacy (laying of fertile eggs)” value in data set [7] came out at 100%.
